In US9435795B2, “Enhanced deposition of chromogens utilizing pyrimidine analogs” (Ventana Medical Systems, Inc., priority 2010, dated 2016):

Experiments:
bcl2 in tonsil tissue = experiment: TSA-IHC tissue staining of bcl2 in tonsil tissue (TA-HQ deposition); conditions: 10 mM in DAB Chromogen solution; 16 minute primary Ab incubation
Description: Enhanced DAB deposition was evaluated on a TSA-IHC tissue staining of bcl2 in tonsil tissue. […] Tyramide deposition was performed with and without 10 mM 2-hydroxypyrimidine. […] The percent of cells stained with DAB increased in areas with low bcl2 antigen expression. Formalin fixed paraffin embedded tonsil tissue was mounted on Superfrost slides, deparaffinized and antigen retrieved using CC1 bulk reagent (Ventana® p/n 950-124). […] Slides were counterstained using Hematoxylin II (Ventana® p/n 790-2208) and Bluing Reagent (Ventana® p/n760-2037). The slides were dehydrated using gradient alcohols, cover slipped and viewed using a bright field microscope (FIGS. 23-26).

[1] = system: HER-2 positive CaLu3 carcinoma cell lines; experiment: ISH tissue staining with HER2 DNA probe on HER-2 3-in-1 mouse xenografts; conditions: 10 mM in DAB Chromogen solution; CaLu3 carcinoma cells
Description: ISH tissue staining was examined using enhanced DAB solutions. HER-2 3-in-1 mouse xenografts of HER-2 positive carcinoma cell lines CaLu3, ZR-75-1 and MCF7 were treated with HER2 DNA probe (VMSI 480-4495) and stained with the ultraView™ DAB Chromogen solution or an enhanced DAB Chromogen solution containing 10 mM L-histidine (see FIGS. 21-22). […] The increased DAB deposition was marginal for the strongest ISH signals, but signal intensity for the weaker DAB signals was raised throughout the tissue. The same observation was made with enhanced DAB deposition in IHC.

[2] = Compatibility and stability of reformulated DAB Chromogen solution with additive; format: physicochemical; conditions: higher concentrations of imidazole; 50 mM L-histidine
[3] = molecular target: T1, horseradish peroxidase (HRP) (Armoracia rusticana, UniProt P00433); experiment: Plate assay: enhancers added sequentially to ultraView Detection Kit (synergistic/antagonistic effects); format: biochemical; conditions: NMO added to mixture 4; 50 mM L-histidine or 10 mM pyrimidine added to mixture 5
T1 construct: purchased VMSI (Ventana Medical Systems, Inc.) 760-500: 253-4290, 253-4292 and 253-4293
Description: The same concentration of reagents from the ultraView™ Detection Kit (VMSI 760-500: 253-4290, 253-4292 and 253-4293) were used in 1× Reaction Buffer™ containing 0.1% fish gelatin for each trial. In each trial, the enhancers were added together one at a time.

[4] = molecular target: T1, horseradish peroxidase (HRP); experiment: Plate assay: kinetic screening of enhancers of HRP-mediated DAB oxidation (ultraView Detection Kit, OD 455 nm); format: biochemical; conditions: for Vmax (apparent, HRP-oxidized DAB): no enhancer 18.50; for Percent increase of apparent Vmax of HRP: relative to uView Vmax without enhancement
Description: The additives were directly added to a well containing the necessary reagents from the ultraView™ Detection Kit (VMSI 760-500: 253-4290, 253-4292 and 253-4293) in 1× Reaction Buffer (VMSI 950-300) and 0.1% fish gelatin. Fish gelatin was used to help disperse the oxidized DAB and inhibit its precipitation from solution. The ultraView™ Detection Kit was diluted to measure the formation of oxidized DAB by UV-VIS at 455 nm. Additives were tested at set concentrations to determine enhancement in the DAB oxidation reaction. The data were graphed, and the apparent maximum velocity (Vmax) was calculated at each additive concentration level.

ultraView HRP multimer = molecular target: T2, ultraView HRP multimer (Armoracia rusticana, UniProt P00433); experiment: Michaelis-Menten kinetics of HRP-oxidized DAB with enhanced DAB chromogen mixtures; format: biochemical, horseradish
T2 construct: purchased Ventana Medical Systems (ultraView kit component)
T2 sequence (P00433 31-338 limits assumed): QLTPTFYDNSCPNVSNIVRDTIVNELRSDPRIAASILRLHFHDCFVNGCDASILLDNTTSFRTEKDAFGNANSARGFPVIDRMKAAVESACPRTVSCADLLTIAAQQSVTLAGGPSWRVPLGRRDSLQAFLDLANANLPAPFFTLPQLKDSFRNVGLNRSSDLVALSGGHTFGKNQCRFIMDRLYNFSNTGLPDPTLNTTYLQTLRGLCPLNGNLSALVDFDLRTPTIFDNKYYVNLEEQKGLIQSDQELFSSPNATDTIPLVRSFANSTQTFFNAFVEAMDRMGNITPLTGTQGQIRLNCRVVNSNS
Description: To further study the synergistic effect in the increased apparent Vmax for HRP-oxidized DAB, Michaelis-Menten kinetics were calculated for the best enhanced DAB chromogen mixtures in Table 3. […] The definition of Vmax=kcat·[E]total when the enzyme substrate concentration was at saturation levels. When the concentration of enzyme was kept constant, the apparent Vmax is proportional to kcat (the apparent turnover for HRP or the first order rate constant).

Precipitation of DAB from reformulated DAB Chromogen solution [2]: caused the precipitation of DAB | Effect on apparent velocity of HRP when added to a preceding assay mixture of Table 2 [3]: increased the apparent velocity of HRP | Vmax (apparent, HRP-oxidized DAB) ([4]; enhancer 10 mM): 21.84 mOD/min | Percent increase of apparent Vmax of HRP ([4]; enhancer 10 mM): 18% | Vmax (apparent, HRP-oxidized DAB) ([4]; enhancer 50 mM, (sat) = reaction rate saturated by start of UV-VIS analysis): 44.00 mOD/min | Percent increase of apparent Vmax of HRP ([4]; enhancer 50 mM): 138% | Vmax (apparent, HRP-oxidized DAB) ([4]; enhancer 100 mM, (sat) = reaction rate saturated by start of UV-VIS analysis): 72.00 mOD/min | Vmax (ultraView HRP multimer; 10 mM buffer salt with 10 mM pyrimidine, no enhancer 228): 300 mOD/min | Vmax (ultraView HRP multimer; 50 mM buffer salt with 10 mM 2-hydroxypyrimidine (FIG. 19: also 10 mM boric acid, 10 mM calcium chloride)): 317 mOD/min
Compound: N[C@@H](Cc1c[nH]cn1)C(=O)O [L-Histidine]
DAB deposition in TSA-IHC staining (in words) (bcl2 in tonsil tissue): increased the DAB deposition on tissue | DAB deposition in ISH staining (in words) [1]: increased the deposition of DAB
